Measurements taken from publication PMC13242511, “Disrupting Notch signalling by a small molecule inhibiting dihydroorotate dehydrogenase activity” (Scientific Reports, 2026).
Several values for one entry are separate records, joined by “and”; a condition that tells them apart may be missing. Equal entries are not always repeated.

Legend:
[1] = system: mNotch1ΔE fused to an HiBiT tag; assay: HiBit reporter assay; format: cell-based, mouse; set-up: key to protein stability: + indicates that the compound had an effect; -: − indicates that there was no significant effect in the respective assay; details: for protein stability: summary Fig. 8E
Method: The Notch1ΔE construct used to generate the Notch reporter cell line (see above) was first cloned in frame into the pBiT3.2-C [TK/HiBiT/Blast] Vector (Promega) and then stably introduced into HEK293T wild type cells, using Lipofectamine transfection, as described. Analogous to the Notch reporter cell line, Blasticidin was used as a selection marker (0.1 mg/ml) and stable cell lines with robust luciferase signals were generated. […] A clone (#D2) with an empty HiBit vector stably integrated was used as control.
20 µl containing 4,000 cells were seeded on 384-well pre-spotted compound plates (Greiner, cat #781080). Cells were incubated for 24 h and viability was determined using CellTiter-Fluor (Promega, cat # G6080), following the manufacturer’s instructions. Next, cells were subjected to the HiBit assay according to the manufacturer’s instructions (Promega, cat # N3030). Prior to cell lysis, the tissue culture plates were allowed to cool down to room temperate. Fluorescence and luminescence signals were recorded using a SpectraMax i3 (Molecular devices) and signals were read at different time-points to determine optimal signal stability. Cells cultivated only with DMSO were used as a reference to determine effects of compounds. MG132, Bafilomycin A1 and the GSI RO4929097 served as additional controls. Celastrol was used to determine the assay window, and a minimum of two technical replicates were measured per assay.

MDA-MB-231 cells = assay: Three dose response gene expression analysis (qRT-PCR); format: cell-based; details: 0.1, 1 and 10 µM, 24 h
Method: (§1) Total RNA from cell lines was isolated using the RNeasy Mini kit (cat #74104, Qiagen), according to the manufacturer’s instructions. qRT-PCR was performed as described elsewhere[51] with some minor modifications: RNA was reverse transcribed to cDNA using iScript Reverse Transcription Supermix (cat # 1708841, Bio-rad). cDNA was then diluted 1:5 in nuclease free H20. qRT-PCR was performed on a C1000 Touch thermal cycler (Bio-rad) and gene expression was detected with SsoAdvanced Universal SYBR Green Supermix (cat # 1725274, Bio-rad). Gene expression was determined by normalizing to GAPDH mRNA expression levels and fold expression change was calculated using the ΔΔCT method (ΔΔCT = ΔCt sample − Δct control). Primers used in qPCR are shown in Supplemental Table 9.
(§2) Adherent breast cancer cells were seeded in 24-well cell culture plates (ThermoFisher, Nunc, Delta surface, cat #144530) and T-ALL cells growing in suspension (Jurkat, RPMI-8402) were seeded in non-adherent 24-well plates (ThermoFisher, Nunc, cat […]). 60.000 cells were seeded and treated with 0.1, 1 and 10 µM of each compound. […] Cells were harvested 24 h post treatment and RNA isolation and gene expression analysis (qRT-PCR) was performed as described above.

[2] = system: T-ALL cells (Jurkat, RPMI-8402); assay: as above; format: cell-based; details: 0.1, 1 and 10 µM, 24 h; for HES1 and c-MYC expression: T-ALL cells; for c-MYC expression: T-ALL cell lines
Method: as §1, §2

C2C12 cells = assay: C2C12 myogenic assay; format: cell-based; set-up: key to myogenic assay: + indicates that the compound had an effect; -: − indicates that there was no significant effect in the respective assay; key to mean fusion index: ratio of nuclei fused per area to total nuclei in field; details: for MYH4 (MFI) / fusion index, % of DMSO control: Fig. 5, equals mean of the two '% of control' values of the 4th table; for myogenic assay: summary Fig. 8E; for mean MFI / ratio MFI/MBI: MYH4; for ratio nuclei % / ratio MFI/MBI: single images; for myogenic diff.: overview in comparison to compound C, Supplemental Fig. 9
From the text: To corroborate their status as Notch inhibitors, we tested four of the five compounds (A, C, D, E) in an orthogonal assay for Notch function. Notch signalling plays an important role in myogenic differentiation, and blocking Notch signalling promotes myogenic differentiation in the myoblast cell line C2C12[27] (Fig. 5A). C2C12 cells can be maintained as myoblasts but upon serum starvation spontaneously differentiate to MYH4-positive multinucleated myotubes, a process which is accelerated by Notch blockade.
8000 C2C12 cells were seeded on gelatin (0.1%, Sigma-Aldrich, cat #G2500) coated cover slides (BD Bioscience) and cultivated in proliferation medium. For gelatin coating, 8-well cover slide chambers (BD Bioscience) were incubated for 60 min with 0.1% gelatin in PBS. The remaining liquid was aspirated, and gelatin was allowed to dry for 24 h. Cover slides were stored at 4 °C until use. Upon reaching 85% confluence cell culture medium was exchanged to differentiation medium to enhance differentiation into myocytes/myotubes. Cells were then treated with 10 µM of the respective compound for five days and DMSO-treated cells served as a base-line control. Next, cells were washed with 1 × cold PBS (ThermoFisher, cat #10010023) fixed with 4% paraformaldehyde (PFA, Sigma-Aldrich, cat #1.00496) in PBS for 10 min at room temperature and washed again with 1 × PBS. Fixed cells were either stored at 4 °C in PBS or directly processed for immunocytochemistry staining: For immunocytochemistry, cells were permeabilized for 10 min in 0.1% TritonX-100 / PBS, then washed in PBS and unspecific bindings sites were blocked in protein free blocking solution (DAKO, cat # × 0909) for 30 min at room temperature, followed by two times washing in PBS. Then, cells were incubated with primary antibody MYH4 (ThermoFisher) in blocking solution and 0.1% TritonX-100 in PBS for 1 h at room temperature. Next, cells were washed three times in PBS and incubated with secondary Alexa fluorophore coupled antibody (Invitrogen) in a 1:400 dilution. Labeling of F-actin filaments was conducted by phalloidin-TRITC (Sigma-Aldrich, cat # P1951) in a 1:2500 dilution. Cells were washed three times in PBS and incubated with DAPI (BD Bioscience cat # 564907) for 5 min at room temperature to stain DNA/nuclei. Finally, slides were fixed with mounting medium (ProLong Antifade mounting medium, ThermoFisher, cat #P36934). Bright field and immunocytochemistry images were taken using the SP8 LSM (Leica) at different magnifications and images were recorded as Z-stacks. Images were processed using the FijI (ImageJ) software. As controls, wells with and without differentiation medium were also stained to set the baseline and contrast the differences and stainings of cells with only secondary antibodies were used as negative controls to assess cross-reactivity and background staining. For calculating the MYH4 median fluorescence intensity (MFI) images have been converted into 8-bit greyscale and a standard color threshold was applied (ImageJ). Next, MFI signals per area were measured using ImageJ and divided by the median background intensity (MBI). The nuclei fusion index was calculated as the ratio of nuclei fused per area divided by the total number of nuclei in the field. A minimum of three images has been recorded for the calculations, and two replicate experiments were conducted. For calculations of MFI and fusion index see Supplemental Table 5.

[3] = 10 µM, five days, DMSO ctrl = 100, experiments #1 and #2
[4] = 10 µM, five days, experiments #1 and #2
[5] = 10 µM, five days, experiments #1 and #2, listed as GSI

Row | Compound | protein stability [1] | HES1 expression (MDA-MB-231 cells) | HES4 expression (MDA-MB-231 cells) | transcript levels of the Notch ligand Jagged1 (MDA-MB-231 cells) | HES1 and c-MYC expression [2] | expression of the differentiation marker MYH4 (C2C12 cells; 10 µM, five days) | MYH4 (MFI) (C2C12 cells; 10 µM, five days) | fusion index, % of DMSO control (C2C12 cells; 10 µM, five days) | myogenic assay (C2C12 cells) | c-MYC expression (MDA-MB-231 cells) | mean MFI in % of control (C2C12 cells; [3]) | mean MFI (C2C12 cells; [4]) | mean fusion index (C2C12 cells; [4]) | ratio nuclei % (C2C12 cells; [4]) | myogenic diff. (C2C12 cells) | ratio MFI/MBI (C2C12 cells; [4]) | other results
1 | NC(=O)c1c(NC(=O)NCc2cccnc2)sc2c1CCC2 [compound D] | - | downregulated | reduced | reduced | dose-dependent downregulation | did not produce elevated MYH4 levels | 108.7 | 153.2 | - |  |  |  |  |  |  |  | 
2 | CC(C)(C)c1ccc(Oc2ccc(N)cn2)cc1 [CB-103, reference compound] |  |  |  |  |  | increased MYH4 levels, although not reaching statistical significance |  |  |  | trend towards upregulation | 378.0 % of control and 227.3 % of control | 3.6 and 4.6 | 5.7 and 3.1 | 5.0% and 6.3% and 5.7% and 3.1% | no |  | c-MYC expression [2]: reduced
3 | CCc1c(C(=O)N(C)Cc2cnn(C(C)C)c2)[nH]c2ccccc12 [compound A] | - | downregulated | reduced | reduced |  | elevated expression | 476.6 | 210.8 | + |  | 469.2 % of control | 7.4 and 5.9 | 4.1 and 7.3 | 2.9% and 4.4% and 7.7% and 8.1% and 6.0% and 5.0% |  | 6.1 and 6.4 and 7.3 and 7.5 and 5.2 | activity at 10 µM (C2C12 cells; Mus musculus, C2C12, 120 h, 10 µM, five days, DMSO ctrl = 100, experiments #1 and #2, read-out: mean MFI in % of control): 484%
4 | CC(C)(C(=O)NCC(F)(F)C(F)(F)F)C(=O)N[C@@H]1C(=O)Nc2ccccc2-c2ccccc21 [RO4929097, reference compound] |  |  |  |  |  | elevated expression |  |  |  | did not reduce |  |  |  |  | yes |  | c-MYC expression [2]: consistently reduced; mean MFI in % of control (C2C12 cells; 10 µM, five days, DMSO ctrl = 100, experiments #1 and #2, listed as GSI): 296.5 % of control and 351.1 % of control; mean MFI (C2C12 cells; [5]): 5.5 and 3.6; mean fusion index (C2C12 cells; [5]): 6.7 and 4.2; ratio nuclei % (C2C12 cells; [5]): 6.3% and 6.4% and 7.6% and 4.9% and 3.4%
5 | Cc1ccc2[nH]c3c(c2c1)CCOC31CCN(Cc2ccccc2-c2ccccc2)CC1 [compound B] | + |  | reduced | reduced | dose-dependent downregulation |  |  |  | - |  |  |  |  |  |  |  | 
6 | Cc1nn(-c2nc3ccccc3s2)c(O)c1C1OC(=O)c2ccccc21 (stereo not drawn) [compound E] | - | downregulated |  | reduced | dose-dependent downregulation | elevated expression | 477.8 | 290.1 | + |  | 561.7 % of control and 394.0 % of control | 6.9 and 6.2 | 6.2 and 7.6 | 5.9% and 6.4% and 6.2% and 7.9% and 6.8% and 8.0% |  | 6.3 and 6.7 and 7.6 and 5.1 and 6.8 | 
7 | COc1cccc(CNc2ccc(N3CCCCC3)cc2)c1OCc1cccs1 [compound C] | + |  | upregulated |  | dose-dependent downregulation | elevated expression | 331.0 | 268.7 | + | downregulation | 343.9 % of control and 318.1 % of control | 4.2 | 5.3 | 3.3% and 7.3% | yes | 4.0 and 4.4 | HiBiT luciferase signal ([1]; 24 h, 14-point dose-response, Supplemental Fig. 8D,G): dose-dependent decrease of luciferase signal
